{
  "source": "patent US12178838B2",
  "about": "“Synthetic neuromodulatory peptides” (Lactocore, Inc., priority 2019, dated 2024)",
  "key": {"[1]": {"tested_on": "Sprague Dawley rats", "test": "Predator odor stress exposure and conditioned place aversion (PTSD model)", "type": "in vivo", "settings": "DOX 1 mg/kg IP", "description": "Doxazosin (DOX, Sigma-Aldrich, St. Louis, MO, USA, 1 mg/kg, IP) was prepared in sterile saline. Previously it has been shown that DOX is effective in the treatment of some PTSD symptoms in veterans (Rodgman et al. (2016). Doxazosin XL reduces symptoms of posttraumatic stress disorder in veterans with PTSD: a pilot clinical trial. J. Clin. Psychiat., 77(5), e561-565). The two doses of FQSE (SEQ ID NO:10) (0.05 and 0.5 mg/kg, CS, Menlo Park, CA) were prepared fresh for each test day in sterile saline and administered intra-nasally 30 minutes prior to testing. Each dose was administered in a randomized order across groups. […] The same procedure with isoflurane was used to administer doxazosin however the drug was administered IP. Individuals performing behavioral tests were blind to drug treatment. […] Potential differences between groups that were not odor exposed and odor exposed groups were analyzed using One-Way ANOVA with drug dose as the primary factor. […]"}, "[2]": {"tested_on": "Wistar rats", "test": "Learned helplessness model: Porsolt forced swimming test, one-day modification", "type": "in vivo", "settings": "Maprotiline 4.5 mg/kg i/p; FQSE 0.5 mg/kg i/n", "description": "(§1) Weigh was measured on an analytical balance, with an accuracy of 0.0001 g, the solution was prepared with a margin of 0.5 ml.\n(§2) The tetracyclic antidepressant Maprotiline (Lyudiomil), a monoamine reuptake inhibitor, was used as a positive control. Animals received a daily intraperitoneal injection (i.p) of Maprotiline for ten days (M9651, Merck, 4.5 mg/kg, dissolved in saline: 200 μl per administration).\n(§3) The state of “learned helplessness” according to modern concepts adequately reflects anxiety-depressive syndrome, reproducing the main signs of a person's endogenous depression, including the severity of effects of helplessness, hopelessness, and characteristic endocrine disorders. To develop LH, rats were subjected to uncontrolled unavoidable aversive stress (electro cutaneous irritation). […] Stimulation was performed automatically using a software randomizer.\n(§4) “LH”—a group of animals subjected to stress, in which a depressive state of “learned helplessness” was developed. Pharmacotherapy was not performed in the LH group; the development of experimental depression was studied. […] “LH+Map.”—the comparison drug group. Maprotiline was injected intraperitoneally at a dosage of 4.5 mg/kg ten days daily to develop experimental depression."}, "[3]": {"tested_on": "Wistar rats", "test": "Learned helplessness model: Open Field test", "type": "in vivo", "description": "as §1, §2, §3\nThe Open Field test is a classic method for assessing the level of motor activity and exploratory behavior of rodents in new stressogenic conditions. […] On the 5th day after stressing in the LH model, the rat was placed in the center of the OF. The following parameters were measured for 5 minutes: latency to start of moving, the number of crossed squares (outside, intermediate and central), the duration of the rears and immobilization time.\nas §4"}, "[4]": {"tested_on": "Wistar rats", "test": "Learned helplessness model: Elevated Plus-Maze test", "type": "in vivo", "settings": "Map 4.5 mg/kg i/p; FQSE 0.5 and 2.5 mg/kg i/n", "description": "Weigh was measured on an analytical balance, with an accuracy of 0.0001 g, the solution was prepared with a margin of 0.5 ml. For the experiment, a freshly prepared FQSE (SEQ ID NO:10) solution was used; for the second day, this solution was stored in a refrigerator at +4° C. The tetracyclic antidepressant Maprotiline (Lyudiomil), a monoamine reuptake inhibitor, was used as a positive control. […] The classical paradigm of “learned helplessness” (LH) was used as an experimental model of depression ([…] et al. (1975). Learned helplessness in the rat. J. Comp. Physiol. […] The state of “learned helplessness” according to modern concepts adequately reflects anxiety-depressive syndrome, reproducing the main signs of a person's endogenous depression, including the severity of effects of helplessness, hopelessness, and characteristic endocrine disorders. To develop LH, rats were subjected to uncontrolled unavoidable aversive stress (electro cutaneous irritation). […] Stimulation was performed automatically using a software randomizer. […] The time spent by the animal inside and outside the closed arms (in the open arms and in the center), the number of transitions between the arms, the number of stretch-attended postures were evaluated. […]"}, "[5]": {"tested_on": "corticosterone in rat plasma", "test": "Learned helplessness model: plasma corticosterone and dexamethasone test", "type": "in vivo, rats", "description": "On the first day of the test (DXMT1) at 10:00 AM, animals were injected intraperitoneally with saline, then at 04:00 PM on the same day peripheral blood samples were taken to determine the basal level of the hormone, which caused stress, and 30 minutes after taking the rat from the cage and receiving initial sample, re-taken blood to measure hormone stress level.\nTo study the sensitivity of the HPA system to feedback signals, rats were injected with dexamethasone (10 μg/kg, intraperitoneally) the next day (DXMT2) at 10 am. The procedure for taking blood from the tail vein was repeated after 6 and 6.5 hours. The corticosterone content was determined by enzyme-linked immunosorbent assay with reagent kits “Corticosterone-ELISA” (“Hema”, RF) in two parallel samples.\nas §4"}, "[6]": {"tested_on": "BDNF", "test": "Western blot of brain homogenates after CRS: BDNF", "type": "in vivo, rats", "settings": "fluoxetine 5 mg/kg", "description": "(§5) To simulate a depressive state, experimental animals were placed in the individual restrainers (“Open Science”, Russia) for six hours daily for 14 days (hereinafter “chronic restraint stress=CRS”). […] The administration of drugs was carried out daily, 30 minutes before placing rats in the restrainers.\n(§6) At the end of the behavioral examination, the rats were decapitated, and their brains extracted for subsequent western blot analysis. A total of 51 samples of homogenized brain tissue from Sprague-Dawley rats (3-4 months old) were received from the Customer. 25 samples were homogenates of the cerebral cortex, 26 samples were homogenates of the hippocampus isolated from rat brain. The amount of homogenized tissue in each sample was less than 50 mg. […] They were Incubated in ice for 30 minutes. Then the samples were centrifuged at 12000 g, 15 minutes, +4° C.\n(§7) All the steps necessary for the analysis of protein levels of BDNF, p-p70S6k (Thr421/Ser424), p-ERK (one and two), (Thr202/Tyr204), p-GSK3β (Ser9), p-PKC (PKCG gamma Thr514) and the GAPDH reference protein were provided in the studied samples using Western blotting. […]\n(§8) The integral areas of the spots obtained were calculated as a quantitative assessment and then normalized to the amount of protein in the sample."}, "[7]": {"tested_on": "p-GSK3β (Ser9)", "test": "Western blot of brain homogenates after CRS: p-GSK3β", "type": "in vivo, rats", "settings": "fluoxetine; FQSE", "description": "as §5, §6, §7, §8"}, "[8]": {"tested_on": "p-ERK 2 (Tyr204)", "test": "Western blot of brain homogenates after CRS: p-ERK2", "type": "in vivo, rats", "settings": "fluoxetine 5 mg/kg; FQSE 0.3 mg/kg; against stress and control levels", "description": "as §5, §6, §7, §8"}, "[9]": {"tested_on": "p-PKC (PKC gamma Thr514)", "test": "Western blot of brain homogenates after CRS: p-PKC", "type": "in vivo, rats", "description": "as §5, §6, §7, §8"}, "[10]": {"tested_on": "p-p70S6k (Thr421/Ser424)", "test": "Western blot of brain homogenates after CRS: p-p70S6k", "type": "in vivo, rats", "settings": "fluoxetine 5 mg/kg", "description": "as §5, §6, §7, §8"}, "[11]": {"tested_on": "Sprague-Dawley rats", "test": "Chronic restraint stress model: Porsolt Forced Swimming test", "type": "in vivo", "settings": "CRS, FQSE 3 mg/kg intranasal", "description": "To simulate a depressive state, experimental animals were placed in the individual restrainers (“Open Science”, Russia) for six hours daily for 14 days (hereinafter “chronic restraint stress=CRS”). In order to study the neurotrophic effect of FQSE (SEQ ID NO:10), the animals were divided into 5 groups, 10 individuals each. The groups are as follows: Group 1, control unstressed animals, receiving 10 μl (a pair of 5 μl doses) of saline intranasally; Group 2, stressed animals, receiving 10 pI of saline intranasal (CRS+Veh); Group 3, stressed animals, receiving fluoxetine (FO) at a dose of 5 mg/kg intraperitoneal (CRS+FO, positive control); Group 4, stressed animals, receiving a peptide drug at a dose of 0.3 mg/kg in 10 pI of saline intranasal (CRS+FQSE (SEQ ID NO:10) 0.3); Group 5, stressed animals, receiving a peptide drug at a dose of 3 mg/kg in […] of saline intranasal (CRS+FQSE (SEQ ID NO:10) 3). The administration of drugs was carried out daily, 30 minutes before placing rats in the restrainers. […]\nThe changes in motor activity and emotional state of animals were evaluated in the Open Field (OFT) and Porsolt Forced Swimming tests (FST) fourteen days after the start of the experiment. […] For three minutes the horizontal and vertical motor activity was measured. The total number of crossed squares, as well as the length of the distance, traveled, and the number of rears was counted. […]"}},
  "data": [
    {"molecule": "COc1cc2nc(N3CCN(C(=O)C4COc5ccccc5O4)CC3)nc(N)c2cc1OC", "note": "(stereo not shown) [Doxazosin]", "values": [
      {"measurement": "behavior of groups not exposed to predator odor (time in randomly paired chambers)", "setting": "[1]; FQSE 0.05 and 0.5 mg/kg i.n.", "value": "normal behavior"},
      {"measurement": "predator odor-induced place aversion", "setting": "[1]; FQSE 0.5 mg/kg intra-nasally, vs VEH", "value": "there was not a significant difference from VEH"}
    ]},
    {"molecule": "CNCCCC12CCC(c3ccccc31)c1ccccc12", "note": "[Maprotiline]", "values": [
      {"measurement": "active swimming time", "setting": "[2]", "value": "increase in active swimming time"},
      {"measurement": "time spent immobile", "setting": "[2]", "value": "significant reduction"},
      {"measurement": "vertical activity (rears)", "setting": "[3]; FQSE 0.5 mg/kg i/n, Map 4.5 mg/kg i/p", "value": "did not differ"},
      {"measurement": "freezing time when placed in the center of the OF", "setting": "[3]; FQSE 2.5 mg/kg i/n, Maprotiline 4.5 mg/kg i/p, daily, vs LH group", "value": "significant decrease"},
      {"measurement": "decrease in the number of animals showing immobilization after LH", "setting": "[3]; Maprotiline 4.5 mg/kg i/p, FQSE 2.5 mg/kg i/n", "value": 2.3, "unit": "fold"},
      {"measurement": "appearance on the open arms", "setting": "[4]", "value": "did not reach statistical significance"},
      {"measurement": "magnitude of suppression—Δ between the Saline and DXM in the stress level of corticosterone", "setting": "[5]; LH + FQSE 0.5, LH + Map.", "value": 248.5, "unit": "nmol/L"},
      {"measurement": "suppression of the stress-induced increase in CS in blood after DXM", "setting": "[5]; Map 4.5 mg/kg, FQSE 0.5 mg/kg", "value": "significant suppression"},
      {"measurement": "basal level of corticosterone (CS) in plasma", "setting": "[5]; Map, FQSE in both doses (0.5, 2.5 mg/kg), vs LH group", "value": "significantly lower level of CS"}
    ]},
    {"molecule": "CNCCC(Oc1ccc(C(F)(F)F)cc1)c1ccccc1", "note": "(stereo not shown) [fluoxetine]", "values": [
      {"measurement": "levels of BDNF protein in cerebral cortex and hippocampus", "setting": "[6]", "value": "showed no relation"},
      {"measurement": "p-GSK3β in the hippocampus", "setting": "[7]", "value": "no response"},
      {"measurement": "cortical levels of p-ERK 2 (Tyr204)", "setting": "[8]", "value": "decreased"},
      {"measurement": "levels of p-PKC (Thr 514) in the cerebral cortex", "setting": "[9]; fluoxetine 5 mg/kg, FQSE 0.3 mg/kg", "value": "showed no changes"},
      {"measurement": "normalization of p-PKC levels in the hippocampus", "setting": "[9]; fluoxetine, FQSE", "value": "neither fluoxetine nor peptide FQSE (SEQ ID NO:10) contributed to the normalization"},
      {"measurement": "levels of p-p70S6k in cerebral cortex or hippocampus", "setting": "[10]", "value": "showed no relation"},
      {"measurement": "duration of active swimming", "setting": "[11]; FO 5 mg/kg intraperitoneal", "value": "no effect"},
      {"measurement": "time spent passive (inactive) swimming", "setting": "[11]; FO 5 mg/kg, vs CRS+Veh", "value": "had no effect"}
    ]}
  ]
}
